# Data as given in the NIST ThermoML archive (doi:10.1016/j.jct.2014.06.011).
# Numbers after ± are expanded uncertainties.
# How the values were obtained:
# [1] = Crystal; DTA
# [2] = Molar enthalpy of transition or fusion; conditions: Crystal; DSC
Normal melting temperature [1] [°C],Molar enthalpy of transition or fusion [2] [kcal/mol],Compound
7.2 ± 0.7,6.88 ± 0.741,CCCCCCCCCCO [decan-1-ol]
32.2 ± 0.7,6.69 ± 0.741,CCCCCCCCCC(=O)O [decanoic acid]
-14.4 ± 0.7,5.66 ± 0.717,CCCCCCCCO [octan-1-ol]
16.6 ± 0.7,5.11 ± 0.717,CCCCCCCC(=O)O [octanoic acid]
